Data: article PMC10866072, “Design, synthesis, molecular modelling and biological evaluation of novel 6-amino-5-cyano-2-thiopyrimidine derivatives as potent anticancer agents against leukemia and apoptotic inducers” (Journal of Enzyme Inhibition and Medicinal Chemistry, 2024)

Experiments:
[1] = MTT cytotoxicity on normal cells; type: cell-based; conditions: human, WI-38 cells (normal lung fibroblasts), WI-38 normal cells, mean ± SD of three experiments, read-out: IC50 (cytotoxic activity)
Procedure: The American Type Culture Collection provided WI-38 cells (normal lung cells). The cells were grown in DMEM with 10% heat-inactivated FBS (Hyclone), 10 µg/ml of insulin (Sigma), and 1% penicillin-streptomycin. The remaining chemicals and reagents were all from Sigma or Invitrogen. The MTT test was used to evaluate cytotoxicity, as described previously. Graph pad Prism software (San Diego, CA) was used to estimate the 50% inhibitory concentration (IC50) from dose response curve graphic plots for each conc.

[2] = tested on: SW480; set-up: method as in PMID 32645482; conditions: cited from earlier work
[3] = tested on: HeLa; set-up: method as in PMID 31525523; conditions: cited from earlier work
[4] = tested on: A549; set-up: method as in PMID 31525523; conditions: cited from earlier work

C[C@H](Nc1ncnc2[nH]cnc12)c1cc2cccc(Cl)c2c(=O)n1-c1ccccc1 [Duvelisib]
IC50 [1]: 22.8 ± 0.65 µM

NC1=NC(NC(=O)Nc2ccc(Cl)c(C(F)(F)F)c2)=CC(c2ccccc2)N1 (centres unmarked) [XIX]
IC50 [2]: 11.1 µM

COc1cc(C2=NC3N=C(C)C(C(C)=O)C(c4ccc([N+](=O)[O-])cc4)N3N2)cc(OC)c1OC (centres unmarked) [XXI]
IC50 [3]: 0.75 µM
IC50 [4]: 1.02 µM

C#Cc1cccc(Nc2ncnc3cc(OCCOC)c(OCCOC)cc23)c1 [erlotinib]
IC50 [1]: 22.8 ± 0.65 µM
